The values below come from patent US12285460B2, “Pharmaceutical compositions” (RHYTHM PHARMACEUTICALS, INC., priority 2013, dated 2025).

Common to all, as to assay type: cell-based
In test [1] the target is T1, MC1R (Homo sapiens, UniProt Q01726).
T1 construct: host or cells: CHO-K1 (ECL assay)
The test is described as follows: cAMP assay (EC50), MC1R. As to conditions: EC50(MC1R)/EC50(MC4R). The procedure:
(§1) Stimulation of intracellular cyclic AMP (cAMP) levels by the peptides is determined in a dose dependent manner by an electrochemiluminescence (ECL) assay (Meso Scale Discovery, Gaithersburg, MD, USA; referred to hereinafter as “MSD”). Briefly, the CHO-K1 cells stably expressing the hMC receptor subtypes are suspended in RMPI 1640® assay buffer (RMPI 1640 buffer contains 0.5 mM IBMX, and 0.2% protein cocktail (MSD blocker A)). About 7,000 cells/well of the transgenic CHO-K1 cells stably expressing hMC receptor subtypes 1, 3, 4 or 5 are dispensed in 384-well Multi-Array plates (MSD) containing integrated carbon electrodes and coated with anti-cAMP antibody. Increasing concentrations of the test compounds are added and the cells are incubated for approximately 40 minutes at 37° C. A cell lysis buffer (HEPES-buffered saline solution with MgCl2 and Triton X-100® at pH 7.3) containing 0.2% protein cocktail and 2.5 nM TAG™ ruthenium-labeled cAMP (MSD) is added and the cells are incubated for approximately 90 minutes at room temperature. At the end of the second incubation period, the read buffer (Tris-buffered solution containing an ECL co-reactant and Triton X-100 at pH 7.8) is added and the cAMP levels in the cell lysates are immediately determined by ECL detection with a Sector Imager 6000 Reader® (MSD). Data are analyzed using a computer-assisted non-linear regression analysis (XL fit; IDBS) and reported as either an EC50 value.
(§2) Human MC4-R transfected cells are grown to confluence in 96 well plates (plating approximately 250,000 cells per well). The cells are treated in triplicate sets with 0.2 mM isobutylmethylxanthine (IBMX) and graded concentrations of the peptide or alternatively the peptide in the presence of 20 nM NDP-MSH. Cells similarly treated but with only 20 nM NDP-MSH serve as positive controls in a volume of 200 μL. A buffer blank serving as a negative control is also included. After incubation of one hour at 37° C., the cells are lysed by the addition of 50 μL of a cell lysis buffer. Total cAMP accumulated in 250 μL of this incubation medium is quantitated using a commercially available low pH cAMP assay kit (Amersham BioSciences) as per procedure specified by the kit supplier. […] The data for agonist is plotted and curve fitted to determine the EC50 value. A peptide showing accumulation in the same range as the negative control (buffer blank in the absence of alpha-MSH) is ineffective at the test concentration. A peptide showing attenuated accumulation is considered to be an antagonist if there is inhibition in cAMP when alpha-MSH is also present in the assay. Similar assay can be performed with hMC-1R, hMC-3R, and hMC-5R cells.
(§3) A chemiluminescence readout system that uses an enzyme fragment complementation (EFC) system with β-galactosidase (β-Gal) as the functional reporter system was used. This assay system for various melanocortin receptor systems is commercially available (cAMP Hunter GPCR assay system, Discoverx Corp, Fremont, CA). This assay utilizes the β-Gal enzyme that is split into two complementary portions; EA for Enzyme Acceptor and ED for Enzyme Donor. In the assay, the ED portion fused to cAMP is made to compete with cAMP generated by cells for binding to a cAMP-specific antibody. The EA is then added to form active β-Gal with any unbound ED-cAMP.
(§4) Briefly, 10000 cells per well are plated overnight and each well (cells incubated with 10 μl assay buffer) is then incubated with 4× serial concentration of the test compound in the cell assay buffer (5 μL) and cAMP antibody reagent (5 μL) for 30 min at 37° C. The cell lysis buffer (20 μL) containing ED-cAMP coupled enzyme fragment and the reporter substrate (Emerald II-Galacton Star, 5:1) is then added and incubated for 60 min at room temperature. Next, 20 μL of EA β-Gal fragment reagent is added.
(In general: Cyclic AMP is a second messenger, typically raised through Gs and lowered through Gi signalling.)

In test [2] the target is T2, MC3R (Homo sapiens, UniProt P41968).
T2 construct: host or cells: CHO-K1 (ECL assay)
T2 sequence (P41968 whole entry): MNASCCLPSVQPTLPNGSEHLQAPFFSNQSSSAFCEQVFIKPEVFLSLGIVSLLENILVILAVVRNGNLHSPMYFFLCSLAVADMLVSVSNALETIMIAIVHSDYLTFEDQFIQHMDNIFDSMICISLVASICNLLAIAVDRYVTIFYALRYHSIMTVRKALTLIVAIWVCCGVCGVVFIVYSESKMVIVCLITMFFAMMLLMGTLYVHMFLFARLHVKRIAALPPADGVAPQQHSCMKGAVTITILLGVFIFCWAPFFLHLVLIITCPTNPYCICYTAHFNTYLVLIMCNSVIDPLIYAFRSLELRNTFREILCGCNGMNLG
Kind of test: cAMP assay (EC50), MC3R. As to conditions: EC50(MC3R)/EC50(MC4R). The procedure:
as §1, §2, §3, §4

Test [3] concerns the target T3, MC5R (Homo sapiens, UniProt P33032).
T3 construct: host or cells: CHO-K1 (ECL assay)
Kind of test: cAMP assay (EC50), MC5R. The following applies: EC50(MC5R)/EC50(MC4R). The procedure: Stimulation of intracellular cyclic AMP (cAMP) levels by the peptides is determined in a dose dependent manner by an electrochemiluminescence (ECL) assay (Meso Scale Discovery, Gaithersburg, MD, USA; referred to hereinafter as “MSD”). Briefly, the CHO-K1 cells stably expressing the hMC receptor subtypes are suspended in RMPI 1640® assay buffer (RMPI 1640 buffer contains 0.5 mM IBMX, and 0.2% protein cocktail (MSD blocker A)). About 7,000 cells/well of the transgenic CHO-K1 cells stably expressing hMC receptor subtypes 1, 3, 4 or 5 are dispensed in 384-well Multi-Array plates (MSD) containing integrated carbon electrodes and coated with anti-cAMP antibody. Increasing concentrations of the test compounds are added and the cells are incubated for approximately 40 minutes at 37° C. A cell lysis buffer (HEPES-buffered saline solution with MgCl2 and Triton X-100® at pH 7.3) containing 0.2% protein cocktail and 2.5 nM TAG™ ruthenium-labeled cAMP (MSD) is added and the cells are incubated for approximately 90 minutes at room temperature. At the end of the second incubation period, the read buffer (Tris-buffered solution containing an ECL co-reactant and Triton X-100 at pH 7.8) is added and the cAMP levels in the cell lysates are immediately determined by ECL detection with a Sector Imager 6000 Reader® (MSD). Data are analyzed using a computer-assisted non-linear regression analysis (XL fit; IDBS) and reported as either an EC50 value. […]
as §3, with “ED-cAMP. This active enzyme then converts a chemiluminescent substrate to generate an output signal that is recorded on a standard microplate reader.” for “ED-cAMP.”
as §4

Bridge positions count the residues as written; N and C are the ends. Square brackets hold non-standard residues; d marks the D form. Peptide text beside a SMILES is read from it. Pen = CC(C)(S)[C@H](N)C(=O)O; hCys = N[C@@H](CCS)C(=O)O Some results are limits rather than exact numbers.

T3 sequence (P33032 whole entry): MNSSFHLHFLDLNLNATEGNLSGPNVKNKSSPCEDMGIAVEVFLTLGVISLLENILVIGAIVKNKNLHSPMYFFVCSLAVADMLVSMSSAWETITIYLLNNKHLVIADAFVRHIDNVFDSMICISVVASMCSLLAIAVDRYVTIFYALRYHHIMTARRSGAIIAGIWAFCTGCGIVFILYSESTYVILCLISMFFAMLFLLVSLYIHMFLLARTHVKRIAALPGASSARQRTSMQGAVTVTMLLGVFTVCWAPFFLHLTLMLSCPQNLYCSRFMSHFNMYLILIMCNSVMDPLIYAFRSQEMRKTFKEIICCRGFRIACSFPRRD
T1 sequence (Q01726 whole entry): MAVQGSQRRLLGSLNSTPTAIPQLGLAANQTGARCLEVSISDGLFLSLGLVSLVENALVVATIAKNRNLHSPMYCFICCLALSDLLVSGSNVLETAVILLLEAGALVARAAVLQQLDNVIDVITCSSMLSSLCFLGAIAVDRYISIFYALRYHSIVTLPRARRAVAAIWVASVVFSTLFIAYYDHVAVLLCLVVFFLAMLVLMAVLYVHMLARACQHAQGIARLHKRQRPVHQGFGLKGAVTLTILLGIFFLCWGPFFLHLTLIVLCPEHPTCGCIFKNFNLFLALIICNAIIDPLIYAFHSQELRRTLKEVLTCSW

On to `CC(=O)N[C@@H](CCCNC(=N)N)C(=O)N[C@H]1CCSSC(C)(C)[C@@H](C(N)=O)NC(=O)[C@H](Cc2c[nH]c3ccccc23)NC(=O)[C@H](CCCNC(=N)N)NC(=O)[C@@H](Cc2ccccc2)NC(=O)[C@@H](C)NC1=O` [Compound 17, Ac-Arg-cyclo[hCys-D-Ala-D-Phe-Arg-Trp-Pen]-NH2] (Ac-R[hCys][dA][dF]RW[Pen]-NH2; disulfide 2-7), for which the “Ratios of EC50 values MC1/4” value in test [1] was 15. Further, in test [2], the “Ratios of EC50 values MC3/4” value amounted to 17. Also, the “Ratios of EC50 values MC5/4” value in test [3] is 159.

Regarding `CC(=O)N[C@@H](CCCNC(=N)N)C(=O)N[C@H]1CSSC[C@@H](C(N)=O)NC(=O)[C@H](Cc2c[nH]c3ccccc23)NC(=O)[C@H](CCCNC(=N)N)NC(=O)[C@@H](Cc2ccccc2)NC(=O)[C@H](CC(N)=O)NC(=O)[C@@H](C)NC1=O` [Compound 9, Ac-Arg-cyclo[Cys-D-Ala-Asn-D-Phe-Arg-Trp-Cys]-NH2] (Ac-RC[dA]N[dF]RWC-NH2; disulfide 2-8), in test [1], the “Ratios of EC50 values MC1/4” value is reported as 90. For the same molecule, the “Ratios of EC50 values MC3/4” value in test [2] stood at 30. Besides, in test [3], the “Ratios of EC50 values MC5/4” value was 530.

With `CC(=O)N[C@@H](CCCNC(=N)N)C(=O)N[C@H]1CSSC[C@@H](C(N)=O)NC(=O)[C@H](Cc2c[nH]c3ccccc23)NC(=O)[C@H](CCCNC(=N)N)NC(=O)[C@@H](Cc2ccccc2)NC(=O)[C@H](Cc2c[nH]cn2)NC(=O)[C@@H](C(C)(C)C)NC1=O` [Compound 3, Ac-Arg-cyclo[Cys-D-Tie-His-D-Phe-Arg-Trp-Cys]-NH2], the “Ratios of EC50 values MC1/4” value in test [1] was 1. The “Ratios of EC50 values MC3/4” value in test [2] is 1. Further, the “Ratios of EC50 values MC5/4” value in test [3] amounted to 930.

For `CC(=O)N[C@@H](CCCNC(=N)N)C(=O)N[C@H]1CSSC[C@@H](C(N)=O)NC(=O)[C@H](Cc2c[nH]c3ccccc23)NC(=O)[C@H](CCCNC(=N)N)NC(=O)[C@@H](Cc2ccccc2)NC(=O)[C@H](Cc2c[nH]cn2)NC(=O)[C@@H](C(C)C)NC1=O` [Compound 4, Ac-Arg-cyclo[Cys-D-Val-His-D-Phe-Arg-Trp-Cys]-NH2], the “Ratios of EC50 values MC1/4” value in test [1] came to 0.93. Further, in test [2], the “Ratios of EC50 values MC3/4” value worked out at 1.19. In addition, in test [3], the “Ratios of EC50 values MC5/4” value was 584.

Regarding `CC(=O)N[C@@H](CCCNC(=N)N)C(=O)N[C@H]1CCSSC[C@@H](C(N)=O)NC(=O)[C@H](Cc2c[nH]c3ccccc23)NC(=O)[C@H](CCCNC(=N)N)NC(=O)[C@@H](Cc2ccccc2)NC(=O)[C@H](C)NC1=O` [Compound 15, Ac-Arg-cyclo[hCys-Ala-D-Phe-Arg-Trp-Cys]-NH2] (Ac-R[hCys]A[dF]RWC-NH2; disulfide 2-7), the “Ratios of EC50 values MC1/4” value in test [1] was found to be 15. Besides, in test [2], the “Ratios of EC50 values MC3/4” value is 3.8. Further, in test [3], the “Ratios of EC50 values MC5/4” value is 161.

`CC(=O)N[C@@H](CCCNC(=N)N)C(=O)N[C@H]1CSSC[C@@H](C(N)=O)NC(=O)[C@H](Cc2c[nH]c3ccccc23)NC(=O)[C@H](CCCNC(=N)N)NC(=O)[C@@H](Cc2ccccc2)NC(=O)[C@H](Cc2c[nH]cn2)NC(=O)[C@@H](CC(C)C)NC1=O` [Compound 1, Ac-Arg-cyclo[Cys-D-Leu-His-D-Phe-Arg-Trp-Cys]-NH2]: the “Ratios of EC50 values MC1/4” value in test [1] is 0.68. Also, the “Ratios of EC50 values MC3/4” value in test [2] amounted to 1.13. The “Ratios of EC50 values MC5/4” value in test [3] is listed as 130.

On to `CC[C@@H](C)[C@H]1NC(=O)[C@@H](NC(=O)[C@H](CCCNC(=N)N)NC(C)=O)CSSC[C@@H](C(N)=O)NC(=O)[C@H](Cc2c[nH]c3ccccc23)NC(=O)[C@H](CCCNC(=N)N)NC(=O)[C@@H](Cc2ccccc2)NC(=O)[C@H](Cc2c[nH]cn2)NC1=O` [Compound 2, Ac-Arg-cyclo[Cys-D-Ile-His-D-Phe-Arg-Trp-Cys]-NH2], for which, in test [1], the “Ratios of EC50 values MC1/4” value is recorded as 0.69. In addition, the “Ratios of EC50 values MC3/4” value in test [2] was determined as 0.96. The “Ratios of EC50 values MC5/4” value in test [3] worked out at 420.

As to `CC(=O)N[C@@H](CCCNC(=N)N)C(=O)N[C@H]1CSSC[C@@H](C(N)=O)NC(=O)[C@H](Cc2c[nH]c3ccccc23)NC(=O)[C@H](CCCNC(=N)N)NC(=O)[C@@H](Cc2ccccc2)NC(=O)[C@H](Cc2cn(C)cn2)NC(=O)[C@@H](C)NC1=O` [Compound 6, Ac-Arg-cyclo[Cys-D-Ala-His(1-Me)-D-Phe-Arg-Trp-Cys]-NH2], the “Ratios of EC50 values MC1/4” value in test [1] amounted to 40. In addition, in test [2], the “Ratios of EC50 values MC3/4” value was found to be 6. Also, the “Ratios of EC50 values MC5/4” value in test [3] was determined as 662.

In the case of `CC(=O)N[C@@H](CCC(=O)O)C(=O)N[C@H]1CSSC[C@@H](C(N)=O)NC(=O)[C@H](Cc2c[nH]c3ccccc23)NC(=O)[C@H](CCCNC(=N)N)NC(=O)[C@@H](Cc2ccccc2)NC(=O)[C@H](Cc2c[nH]cn2)NC(=O)[C@H](C)NC1=O` [Compound 22, Ac-Glu-cyclo[Cys-Ala-His-D-Phe-Arg-Trp-Cys]-NH2] (Ac-ECAH[dF]RWC-NH2; disulfide 2-8), the “Ratios of EC50 values MC1/4” value in test [1] is reported as greater than 3. In addition, in test [2], the “Ratios of EC50 values MC3/4” value is recorded as greater than 20. For the same molecule, in test [3], the “Ratios of EC50 values MC5/4” value is recorded as greater than 2563.

In the case of `CC(=O)N[C@@H](CCCNC(=N)N)C(=O)N[C@H]1CSSC[C@@H](C(N)=O)NC(=O)[C@H](Cc2c[nH]c3ccccc23)NC(=O)[C@H](CCCNC(=N)N)NC(=O)[C@@H](Cc2ccccc2)NC(=O)[C@H](CCCNC(=N)N)NC(=O)[C@@H](C)NC1=O` [Compound 10, Ac-Arg-cyclo[Cys-D-Ala-Arg-D-Phe-Arg-Trp-Cys]-NH2] (Ac-RC[dA]R[dF]RWC-NH2; disulfide 2-8), in test [1], the “Ratios of EC50 values MC1/4” value worked out at 2.31. Further, the “Ratios of EC50 values MC3/4” value in test [2] was found to be 1.45.

As to `CC(=O)N[C@@H](CCCNC(=N)N)C(=O)N[C@H]1CSSC[C@@H](C(N)=O)NC(=O)[C@H](Cc2c[nH]c3ccccc23)NC(=O)[C@H](CCCNC(=N)N)NC(=O)[C@@H](Cc2ccccc2)NC(=O)[C@H](Cc2ccc(O)cc2)NC(=O)[C@@H](C)NC1=O` [Compound 11, Ac-Arg-cyclo[Cys-D-Ala-Tyr-D-Phe-Arg-Trp-Cys]-NH2] (Ac-RC[dA]Y[dF]RWC-NH2; disulfide 2-8), in test [1], the “Ratios of EC50 values MC1/4” value was 6.67. In test [2], the “Ratios of EC50 values MC3/4” value is greater than 22.2.
